{"source": "patent US20190134120A1", "about": "“METHODS FOR THE TREATMENT OF BLADDER CANCER” (Viralytics Limited, priority 2013, published 2019)", "key": {"[1]": {"tested_on": "bladder cancer cell lines", "test": "Combination of CVA21 and chemotherapy on cell proliferation, combination index (CalcuSyn)", "assay_type": "cell-based, Human", "conditions": "for combination index values: fixed ratio design", "description": "FIG. 2 c): The effect of the combination of CVA21 and chemotherapy on cell proliferation was assessed by calculating combination index (CI) values using CalcuSyn software (Biosoft).\nCombining CVA21 with the chemotherapy agents Mitomycin C and Gemcitabine has shown surprising synergy. […] Preliminary data using the same method has found from the 50% to the 75% effect levels, combination index values of 0.69-0.83 with Gemcitabine (FIG. 2b). In brief, 5637/T24/TCCSUP-1 cells were plated at 1×10^4 cells per well (100 μL) of a 96 well tray and incubated at 37° C. for 24 hrs. Mitomycin C was diluted in 10% FCS medium in doubling dilutions from between 2.8 to 0.02 ug/ml for 5637 cells and between 3.36 to 0.03 ug/ml for T24 cells. CVA21 was then diluted between MOI 25-0.196 in doubling dilutions using each dilution of Mitomycin C. The cells were then treated with each dilution of CVA21/Mitomycin C and incubated for 72 hrs. The medium was removed and 100 μl of diluted MTS reagent (Promega) was added. The plates were then incubated for 1-4 hrs and absorbance read at 492 nm."}, "5637 cells": {"tested_on": "5637 cells", "test": "Synergy between CVA21 and radiotherapy, 5637 cells", "assay_type": "cell-based, Human", "conditions": "5637 cells irradiated (4-10 Gy)", "description": "Combining CVA21 with the radiotherapy has shown exceptional synergy. When 5637 cells were irradiated (4-10 Gy) then 24 hours later exposed to CVA21 (multiplicities of infection 0.961-12.6), clear synergy was seen (FIG. 3a). […] A comprehensive experimental and analytic method was implemented for this work which allows calculation of combination index values at all data points, and therefore identification of areas of high synergy across the whole response surface (Greco et al. 1995) (FIGS. 3b, 3c).\nIn brief, T24/5637 cells were plated at 0.25×10^4/0.5×10^4 cells per well (100 μL) of a 96 well tray and incubated at 37° C. for 24 hrs. Day 2—An extra 100 ul 10% FCS, media was added to the cells. Then they were treated with Rad (Gy 0, 4, 6, 8, 10) on a clinical Varian linear accelerator in St Luke's Cancer Centre, Royal Surrey Hospital UK. Day 2—The plates were returned to the lab and incubated at 37° C. for 24 hrs. Day 3—The medium was removed and 100 ul of CVA21 (MOI 12.5-0.1 in 2% FCS medium) was added and incubated at 37° C. for 72 hrs. Day 6—The medium was removed and 100 μl of fresh 10% FCS medium added and incubated for 24 hrs. Day 7—The medium was removed and 100 μl of diluted MTS reagent (Promega) was added. The plates were then incubated for 1-2 hr and read absorbance at 492 nm. […]"}, "[2]": {"tested_on": "Patient derived bladder tumour cell line", "test": "Infection of patient derived primary bladder tumour cells with CVA21", "assay_type": "cell-based, Human", "conditions": "varying MOIs; 72 hours; MTS", "description": "Human cancer bladder tissue was disaggregated and primary tumour cells were isolated. These were tested for bladder tumour markers (Cytokeratin 7) (data not shown). Primary tumour cells were infected at varying MOIs and incubated at 37 C for 72 hours then photographed and analysed by MTS ([3-(4,5-dimethylthiazol-2-yl)-5-(3-carboxymethoxyphenyl)-2-(4-sulfophenyl)-2H-tetrazolium, inner salt) assay. (A) CVA21 MOI 3. (B) Uninfected cells. (C) MTS assay. (D) CVA21 (3×10^6 TCID50) was incubated at 37 C for one hour in healthy donor urine. Resulting virus was titrated by TCID50 on SK-MEL-28 cells for 5 days."}, "[3]": {"tested_on": "late stage melanoma patients", "conditions": "Phase II, intralesional treatment, cited from earlier work"}}, "data": [{"substance": "Coxsackievirus A21 [CVA21]", "values": [{"measurement": "synergy with sequential dosing", "setting": "[1]; CVA21 administered 4 hours after MMC, compared with concomitant dosing", "result": "synergy is well maintained"}, {"measurement": "combination index values", "setting": "[1]; CVA21 with Gemcitabine, from the 50% to the 75% effect levels, preliminary data", "result": "0.69-0.83"}, {"measurement": "combination index values", "setting": "[1]; CVA21 with Mitomycin C, from the 50% to the 90% effect levels", "result": "0.40-0.55"}, {"measurement": "interaction of CVA21 with radiation", "setting": "5637 cells; 24 hours later CVA21", "result": "clear synergy"}, {"measurement": "combination indices, minima", "setting": "5637 cells; 24 hours later exposed to CVA21 (MOI 0.961-12.6), dose matrix analysis", "result": "approximately 0.4"}, {"measurement": "infectability of primary tumour cells", "setting": "[2]", "result": "highly infectable"}, {"measurement": "tolerability", "setting": "[3]", "result": "generally being well-tolerated"}, {"measurement": "clinical activity", "setting": "[3]; late stage melanoma", "result": "activity in both injected lesions and non-injected distant lesions"}]}]}
